Measured values from ChEMBL document CHEMBL1149729, “A bioassay for inhibition of serotonin release from bovine platelets” (J Nat Prod, 1992).
Counter-ions that a name gives are not always drawn.

Assays:
[1] = Antimigraine activity in human citreated platelet assessed as inhibition of [14C]serotonin release after 6 mins by scintillation counting; format: functional, cell-based; settings: 0.1 h
[2] = Antimigraine activity in bovine citreated platelet assessed as inhibition of [14C]serotonin release after 6 mins by scintillation counting; format: functional, cell-based; settings: Bos taurus, 0.1 h
[3] = Antimigraine activity in ADP-stimulated bovine citreated platelet assessed as inhibition of [14C]serotonin release at 100 uM after 6 mins by scintillation counting; format: functional; settings: Bos taurus, 0.1 h

Structure (SMILES)	IC50 [1] [µM]	IC50 [2] [µM]	inhibition at 100 µM [3] [%]
COc1ccc(CCN(C)CCCC(C#N)(c2ccc(OC)c(OC)c2)C(C)C)cc1OC (stereo not given) [VERAPAMIL HYDROCHLORIDE]	770	578	
C=C1C(=O)O[C@@H]2C[C@@]3(C)CCCC(=C)[C@@H]3C[C@H]12 [ISOALANTOLACTONE]		> 516	
C=C1C(=O)O[C@@H]2C3O[C@]3(C)CC/C=C(\C)CC[C@@H]12 (stereo not given in full)	5.64		20.3
